Target: GCN2 kinase (Homo sapiens, UniProt Q9P2K8)
Assay: GCN2 enzyme inhibition assay (Transcreener ADP2 fluorescence polarization)
Assay type: biochemical
Settings: 280 μM ATP
Procedure: Compounds were screened for their ability to inhibit GCN2 kinase activity using a Transcreener® ADP^2 fluorescence polarization assay that detects ADP levels (BellBrook Labs, WI). Assays were carried out in a buffer consisting of 25 mM Tris-HCl (pH 7.5), 50 mM NaCl, 10 mM MgCl2 and 1 mM DTT. Final substrate concentrations were 280 μM ATP and 200 μM peptidic substrate ([…]-OH [(RS)7], Bachem, Switzerland). Assays were carried out at 25° C. in the presence of a (typical) final concentration of 4 nM GCN2 kinase. An assay buffer containing GCN2 kinase and (RS)7 was prepared. 4.7 μL of this stock solution was placed per well of a black, low volume, 384-well microtitre plate (e.g. catalogue number 3676, Corning Inc., NY). To this was added […] of DMSO containing serial dilutions of the test compound (typical final concentrations of test compound were 0 to 8 μM). The plate was incubated for 10 minutes at 25° C. prior to the addition of 4.7 μL of ATP stock buffer to initiate the enzyme reaction. The reaction was allowed to proceed for 1 hour at 25° C., prior to the addition of 10 μL detection buffer (consisting of appropriate concentrations of ADP^2 antibody and ADP Alexa633 tracer in 1× stop and detect buffer as supplied by BellBrook Labs). […] Percentage inhibition of enzyme activity was then calculated at each compound dose. IC50 and Ki(app) (using known assay and kinetic parameters) values were calculated from percentage inhibition data using a non-linear, tight-binding algorithm. All data analysis was undertaken using the Screener® software package (Genedata, Switzerland).

[1] = compounds of Formula II, 4 nM GCN2 kinase
[2] = Enzyme activity for compounds of Formula IV, Ki(app), 25° C.

Chain of GCN2 kinase (Q9P2K8 whole entry): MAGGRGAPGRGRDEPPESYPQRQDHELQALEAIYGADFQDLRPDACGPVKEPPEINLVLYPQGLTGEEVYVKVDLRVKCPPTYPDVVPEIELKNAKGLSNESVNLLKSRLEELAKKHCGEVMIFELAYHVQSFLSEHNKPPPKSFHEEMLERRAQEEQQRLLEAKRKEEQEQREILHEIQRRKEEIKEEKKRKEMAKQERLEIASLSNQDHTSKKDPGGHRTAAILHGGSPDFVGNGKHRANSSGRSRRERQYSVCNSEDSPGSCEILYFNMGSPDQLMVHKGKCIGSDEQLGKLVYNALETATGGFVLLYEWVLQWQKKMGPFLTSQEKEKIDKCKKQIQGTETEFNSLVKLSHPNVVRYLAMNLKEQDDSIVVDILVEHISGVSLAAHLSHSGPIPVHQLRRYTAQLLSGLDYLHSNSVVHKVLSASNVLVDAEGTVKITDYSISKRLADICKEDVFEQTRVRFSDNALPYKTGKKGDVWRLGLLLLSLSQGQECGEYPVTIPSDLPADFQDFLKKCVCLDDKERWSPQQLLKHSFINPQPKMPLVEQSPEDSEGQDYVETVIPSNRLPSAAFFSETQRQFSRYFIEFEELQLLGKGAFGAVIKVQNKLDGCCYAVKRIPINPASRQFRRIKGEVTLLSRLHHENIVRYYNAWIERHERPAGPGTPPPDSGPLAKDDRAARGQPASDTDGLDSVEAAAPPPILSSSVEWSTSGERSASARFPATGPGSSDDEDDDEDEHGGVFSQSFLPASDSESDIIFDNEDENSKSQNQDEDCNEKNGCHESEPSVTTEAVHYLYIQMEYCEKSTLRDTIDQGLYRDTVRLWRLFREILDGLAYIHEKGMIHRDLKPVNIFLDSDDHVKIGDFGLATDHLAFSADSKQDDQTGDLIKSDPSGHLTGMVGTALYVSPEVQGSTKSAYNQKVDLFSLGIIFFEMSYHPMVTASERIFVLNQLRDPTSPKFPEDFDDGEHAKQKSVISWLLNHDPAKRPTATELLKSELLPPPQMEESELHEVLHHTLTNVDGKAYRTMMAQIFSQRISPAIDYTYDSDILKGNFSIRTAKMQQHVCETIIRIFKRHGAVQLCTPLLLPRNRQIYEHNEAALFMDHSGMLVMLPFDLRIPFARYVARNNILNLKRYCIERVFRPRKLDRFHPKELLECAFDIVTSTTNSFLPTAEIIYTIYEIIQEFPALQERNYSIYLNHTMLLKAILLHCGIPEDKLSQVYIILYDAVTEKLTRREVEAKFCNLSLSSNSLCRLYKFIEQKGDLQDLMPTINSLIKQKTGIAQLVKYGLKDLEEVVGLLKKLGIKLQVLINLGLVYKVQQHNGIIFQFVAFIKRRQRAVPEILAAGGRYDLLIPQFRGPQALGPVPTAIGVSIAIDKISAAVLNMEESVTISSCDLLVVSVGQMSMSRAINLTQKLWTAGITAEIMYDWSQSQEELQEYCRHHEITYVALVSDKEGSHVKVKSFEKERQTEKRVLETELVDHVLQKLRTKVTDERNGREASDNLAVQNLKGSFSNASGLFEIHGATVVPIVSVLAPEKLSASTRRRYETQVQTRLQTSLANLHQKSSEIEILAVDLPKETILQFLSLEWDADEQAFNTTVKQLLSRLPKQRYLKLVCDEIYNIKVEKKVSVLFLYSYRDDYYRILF

| Structure (SMILES) | Ki [1] [nM] | Ki [2] [nM] | other results |
| --- | --- | --- | --- |
| FC(F)c1ccc2ncc(-c3ccnc(N4CCCNCC4)c3)n2n1 | 10 to 1000 | – | – |
| CS(=O)(=O)NCC1CC(C#N)CN(c2cc(-c3cnc4ccc(C(F)F)nn34)ncn2)C1 (centres unmarked) [listing 1 of 3 here] | 10 to 1000 | – | – |
| CS(=O)(=O)NCC1CC(C#N)CN(c2cc(-c3cnc4ccc(C(F)F)nn34)ncn2)C1 (centres unmarked) [listing 2 of 3 here] | 10 to 1000 | – | – |
| CS(=O)(=O)NCC1CC(C#N)CN(c2cc(-c3cnc4ccc(C(F)F)nn34)ncn2)C1 (centres unmarked) [listing 3 of 3 here] | < 10 | – | – |
| CC1CC(C(N)=O)CN(c2ccnc(-c3cnc4cnc(C(F)F)cn34)n2)C1 (mixture of isomers) [IV-107, 1-(2-(6-(Difluoromethyl)imidazo[1,2-a]pyrazin-3-yl)pyrimidin-4-yl)-5-methylpiperidine-3-carboxamide] | – | 10 to 100 | – |
| CP(C)(=O)C1CC(c2cn[nH]c2)CN(c2ccnc(-c3cnc4sc(C(F)(F)F)cn34)n2)C1 (racemic) [Compound V-6, 5-[4-[3-Dimethylphosphoryl-5-(1H-pyrazol-4-yl)-1-piperidyl]pyrimidin-2-yl]-2-(trifluoromethyl)imidazo[2,1-b]thiazole] | – | – | Ki (compounds of Formula V, 4 nM GCN2 kinase): 100 to 1000 nM |
| C[C@H]1[C@@H](c2cn[nH]c2)OCCN1c1ccnc(-c2cnc3cnc(Cl)cn23)n1 (racemic) [IV-235, Cis-4-(2-(6-Chloroimidazo[1,2-a]pyrazin-3-yl)pyrimidin-4-yl)-3-methyl-2-(1H-pyrazol-4-yl)morpholine] | – | < 10 | – |
| C[C@H]1[C@H](c2cn[nH]c2)OCCN1c1ccnc(-c2cnc3cnc(Cl)cn23)n1 (racemic) [IV-236, Trans-4-(2-(6-Chloroimidazo[1,2-a]pyrazin-3-yl)pyrimidin-4-yl)-3-methyl-2-(1H-pyrazol-4-yl)morpholine] | – | 10 to 100 | – |
| C[C@H]1[C@H](c2cn[nH]c2)OCCN1c1ccnc(-c2cnc3cnc(C#N)cn23)n1 (racemic) [IV-281, Trans-3-(4-(3-Methyl-2-(1H-pyrazol-4-yl)morpholino)pyrimidin-2-yl)imidazo[1,2-a]pyrazine-6-carbonitrile] | – | 10 to 100 | – |
| C[C@H]1[C@@H](c2cn[nH]c2)OCCN1c1ccnc(-c2cnc3cnc(Br)cn23)n1 (racemic) [IV-306, Cis-4-(2-(6-Bromoimidazo[1,2-a]pyrazin-3-yl)pyrimidin-4-yl)-3-methyl-2-(1H-pyrazol-4-yl)morpholine] | – | < 10 | – |
| C[C@H]1[C@H](c2cn[nH]c2)OCCN1c1ccnc(-c2cnc3cnc(Br)cn23)n1 (racemic) [IV-312, Trans-4-(2-(6-Bromoimidazo[1,2-a]pyrazin-3-yl)pyrimidin-4-yl)-3-methyl-2-(1H-pyrazol-4-yl)morpholine] | – | 10 to 100 | – |
| C[C@H]1NCCN(c2ccnc(-c3cnc4cnc(Br)cn34)n2)[C@H]1c1cn[nH]c1 (racemic) [IV-342, Cis-6-Bromo-3-(4-(3-methyl-2-(1H-pyrazol-4-yl)piperazin-1-yl)pyrimidin-2-yl)imidazo[1,2-a]pyrazine] | – | 100 to 1000 | – |
| C[C@H]1CN(c2ccnc(-c3cnc4cnc(C(F)(F)F)cn34)n2)C[C@@H](c2c[nH]cn2)O1 (racemic) [IV-380, Cis-2-(1H-Imidazol-4-yl)-6-methyl-4-(2-(6-(trifluoromethyl)imidazo[1,2-a]pyrazin-3-yl)pyrimidin-4-yl)morpholine] | – | < 10 | – |
| C[C@@H]1CN(c2ccnc(-c3cnc4cnc(C(F)(F)F)cn34)n2)C[C@@H](c2c[nH]cn2)O1 (racemic) [IV-381, Trans-2-(1H-Imidazol-4-yl)-6-methyl-4-(2-(6-(trifluoromethyl)imidazo[1,2-a]pyrazin-3-yl)pyrimidin-4-yl)morpholine] | – | 10 to 100 | – |
| CS(C)(=O)=N[C@@H]1C[C@H](c2cn[nH]c2)CN(c2ccnc(-c3cnc4cnc(C(F)(F)F)cn34)n2)C1 (racemic) [IV-395] | – | 10 to 100 | – |
| C[C@H]1[C@@H](C(N)=O)CCCN1c1ccnc(-c2cnc3cnc(C(F)(F)F)cn23)n1 (racemic) [IV-453, Cis-2-Methyl-1-(2-(6-(trifluoromethyl)imidazo[1,2-a]pyrazin-3-yl)pyrimidin-4-yl)piperidine-3-carboxamide] | – | < 10 | – |

| Structure (SMILES) | Ki [1] [nM] | Ki [2] [nM] | other results |
| --- | --- | --- | --- |
| C[C@@H]1CN(c2ccnc(-c3cnc4cnc(C(F)(F)F)cn34)n2)C[C@H](c2ccnn2C)N1 (racemic) [IV-667, Cis-3-(4-(3-Methyl-5-(1-methyl-1H-pyrazol-5-yl)piperazin-1-yl)pyrimidin-2-yl)-6-(trifluoromethyl)imidazo[1,2-a]pyrazine] | – | 100 to 1000 | – |
| C[C@@H]1CN(c2ccnc(-c3cnc4cnc(C(F)(F)F)cn34)n2)C[C@H](c2cncn2C)N1 (racemic) [IV-672, Cis-3-(4-(3-Methyl-5-(1-methyl-1H-imidazol-5-yl)piperazin-1-yl)pyrimidin-2-yl)-6-(trifluoromethyl)imidazo[1,2-a]pyrazine] | – | 100 to 1000 | – |
| C[C@H]1NCCN(c2ccnc(-c3cnc4cnc(C(F)(F)F)cn34)n2)[C@H]1c1cn[nH]c1 (relative stereo) [IV-208, Cis-3-(4-(3-Methyl-2-(1H-pyrazol-4-yl)piperazin-1-yl)pyrimidin-2-yl)-6-(trifluoromethyl)imidazo[1,2-a]pyrazine] | – | 10 to 100 | – |
| CCN1CCN(c2ccnc(-c3cnc4cnc(Br)cn34)n2)[C@@H](C)[C@H]1c1cn[nH]c1 (relative stereo) [IV-390, Cis-6-Bromo-3-(4-(4-ethyl-2-methyl-3-(1H-pyrazol-4-yl)piperazin-1-yl)pyrimidin-2-yl)imidazo[1,2-a]pyrazine] | – | < 10 | – |
| C[C@@H]1[C@H](c2cn[nH]c2)N(c2ccnc(-c3cnc4cnc(Br)cn34)n2)CCN1C (relative stereo) [IV-393, Cis-6-Bromo-3-(4-(3,4-dimethyl-2-(1H-pyrazol-4-yl)piperazin-1-yl)pyrimidin-2-yl)imidazo[1,2-a]pyrazine] | – | 100 to 1000 | – |
| C[C@H]1NCCN(c2ccnc(-c3cnc4cnc(C5CC5)cn34)n2)[C@H]1c1cn[nH]c1 (relative stereo) [IV-412, Cis-6-Cyclopropyl-3-(4-(3-methyl-2-(1H-pyrazol-4-yl)piperazin-1-yl)pyrimidin-2-yl)imidazo[1,2-a]pyrazine] | – | 100 to 1000 | – |
| CC1C(CNS(C)(=O)=O)OCCN1c1cc(-c2cnc3ccc(C(F)F)nn23)ncn1 (single isomer, unassigned) [II-371, N-((4-(6-(6-(Difluoromethyl)imidazo[1,2-b]pyridazin-3-yl)pyrimidin-4-yl)-3-methylmorpholin-2-yl)methyl)methanesulfonamide] | < 10 | – | – |
| CC1C(CNS(C)(=O)=O)C(F)(F)C(C)CN1c1cc(-c2cnc3ccc(C(F)F)nn23)ncn1 (single isomer, unassigned) [II-467, N-((1-(6-(6-(Difluoromethyl)imidazo[1,2-b]pyridazin-3-yl)pyrimidin-4-yl)-4,4-difluoro-2,5-dimethylpiperidin-3-yl)methyl)methanesulfonamide] | < 10 | – | – |
| CC1C(CNS(C)(=O)=O)C(F)(F)C(C)CN1c1cc(-c2cnc3ccc(C(F)F)nn23)ncn1 (single isomer, unassigned) [II-468, N-((1-(6-(6-(Difluoromethyl)imidazo[1,2-b]pyridazin-3-yl)pyrimidin-4-yl)-4,4-difluoro-2,5-dimethylpiperidin-3-yl)methyl)methanesulfonamide] | 10 to 1000 | – | – |
| CS(=O)(=O)C1CCCN(c2cc(-c3cnc4ccc(C(F)F)nn34)ncn2)C1 (single isomer, unassigned) [II-530, 6-(Difluoromethyl)-3-(6-(3-(methylsulfonyl)piperidin-1-yl)pyrimidin-4-yl)imidazo[1,2-b]pyridazine] | 10 to 1000 | – | – |
| N#CCC1CN(c2cc(-c3cnc4ccc(C(F)F)nn34)ncn2)CCO1 (single isomer, unassigned) [II-564, 2-(4-(6-(6-(Difluoromethyl)imidazo[1,2-b]pyridazin-3-yl)pyrimidin-4-yl)morpholin-2-yl)acetonitrile] | 10 to 1000 | – | – |
| N#CCC1CN(c2cc(-c3cnc4ccc(C(F)F)nn34)ncn2)CCO1 (single isomer, unassigned) [II-565, 2-(4-(6-(6-(Difluoromethyl)imidazo[1,2-b]pyridazin-3-yl)pyrimidin-4-yl)morpholin-2-yl)acetonitrile] | 10 to 1000 | – | – |
| CC1C(N=S(C)(C)=O)CCCN1c1cc(-c2cnc3ccc(C(F)F)nn23)ncn1 (single isomer, unassigned) [II-581, ((1-(6-(6-(Difluoromethyl)imidazo[1,2-b]pyridazin-3-yl)pyrimidin-4-yl)-2-methylpiperidin-3-yl)imino)dimethyl-λ^6-sulfanone] | 10 to 1000 | – | – |
| CC1C(N=S(C)(C)=O)CCCN1c1cc(-c2cnc3ccc(C(F)F)nn23)ncn1 (single isomer, unassigned) [II-582, ((1-(6-(6-(Difluoromethyl)imidazo[1,2-b]pyridazin-3-yl)pyrimidin-4-yl)-2-methylpiperidin-3-yl)imino)dimethyl-λ^6-sulfanone] | > 1000 | – | – |
| C[C@@H]1C[C@H](CO)[C@H](C)N(c2cc(-c3cnc4ccc(C(F)F)nn34)ncn2)C1 (single isomer, unassigned) [II-585] | < 10 | – | – |
| CC1CC(CO)C(C)N(c2cc(-c3cnc4ccc(C(F)F)nn34)ncn2)C1 (single isomer, unassigned) [II-586, (1-(6-(6-(Difluoromethyl)imidazo[1,2-b]pyridazin-3-yl)pyrimidin-4-yl)-2,5-dimethylpiperidin-3-yl)methanol] | 10 to 1000 | – | – |

Reference: patent US10988477B2 (Merck Patent GmbH, priority 2018, dated 2021)
